Laboratory results: ChEMBL document CHEMBL1201862, “PubChem BioAssay data set” (2004)
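Five concentrations, 48 hours, 96-well plates. Here, GI50 denotes the concentration required for 50% inhibition of growth.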 Calls of active or inactive are those of the source. No stated cut-off is given here; in the data, active = GI50 up to about 1.1 µM and inactive = higher.

Tests used:
Assay in all cases: NCI anticancer screen, dose series, 48 h
PC-3 = test system: PC-3
COLO 205 = test system: COLO 205
K562 = test system: K562
SR = test system: SR
MDA-MB-231 = test system: MDA-MB-231
HOP-92 = test system: HOP-92
SK-MEL-2 = test system: SK-MEL-2
SK-OV-3 = test system: SK-OV-3
T47D = test system: T47D
M14 = test system: M14
SNB-75 = test system: SNB-75
OVCAR-5 = test system: OVCAR-5
KM12 = test system: KM12
U-251 = test system: U-251
HL-60 = test system: HL-60
CAKI-1 = test system: CAKI-1
MDA-MB-435 = test system: MDA-MB-435
HCT-15 = test system: HCT-15
LOX IMVI = test system: LOX IMVI
HT-29 = test system: HT-29

Structure (SMILES) | GI50 (PC-3) | GI50 (COLO 205) | GI50 (K562) | GI50 (SR) | GI50 (MDA-MB-231) | GI50 (HOP-92) | GI50 (SK-MEL-2) | GI50 (SK-OV-3) | GI50 (T47D) | GI50 (M14) | GI50 (SNB-75) | GI50 (OVCAR-5) | GI50 (KM12) | GI50 (U-251) | GI50 (HL-60) | GI50 (CAKI-1) | GI50 (MDA-MB-435) | GI50 (HCT-15) [µM] | GI50 (LOX IMVI) | GI50 (HT-29)
CC(C)(C)c1nc2c(o1)/C(=N\c1ccc(F)cc1)c1ccccc1C2=O | 5.41 µM (inactive) | 15.7 µM (inactive) | 4.1 µM (inactive) | > 43.5 µM (inactive) | 30.2 µM (inactive) | > 72.3 µM (inactive) | 2.67 µM (inactive) | 22.1 µM (inactive) | > 49.3 µM (inactive) | 2.96 µM (inactive) | 6.79 µM (inactive) | 14.6 µM (inactive) | 7.78 µM (inactive) | 3.48 µM (inactive) | > 28.6 µM (inactive) | 50.9 µM (inactive) | 2.05 µM (inactive) | 5.19 | 2.56 µM (inactive) | 17.6 µM (inactive)
O=C(OCCN=C1c2ccccc2CCc2ccccc21)c1ccccc1 | > 100 µM (inactive) | > 100 µM (inactive) | > 100 µM (inactive) | 18 µM (inactive) | > 100 µM (inactive) | > 100 µM (inactive) | > 100 µM (inactive) | > 100 µM (inactive) | > 100 µM (inactive) | > 100 µM (inactive) | > 100 µM (inactive) | > 100 µM (inactive) | > 100 µM (inactive) | > 100 µM (inactive) | > 100 µM (inactive) | > 100 µM (inactive) | > 100 µM (inactive) | > 100 | > 100 µM (inactive) | > 100 µM (inactive)
[O-]/[N+](=N/c1ncc(-c2ccccc2)cn1)c1ncc(-c2ccccc2)cn1 | 92.7 µM (inactive) | > 100 µM (inactive) | 52.8 µM (inactive) | 16.4 µM (inactive) | > 100 µM (inactive) | 69 µM (inactive) | > 100 µM (inactive) | > 100 µM (inactive) | > 79.8 µM (inactive) | > 100 µM (inactive) | > 100 µM (inactive) | > 100 µM (inactive) | 67.6 µM (inactive) | 44.1 µM (inactive) | 39.1 µM (inactive) | > 100 µM (inactive) | 40.5 µM (inactive) | 36.4 | 43.4 µM (inactive) | > 78 µM (inactive)
COc1ccc(C(=O)N=C2N(c3ccccc3)C(=N/c3ccccc3)/C(=N\c3ccccc3)N2c2ccccc2)cc1 | 16.8 µM (inactive) | > 100 µM (inactive) | > 100 µM (inactive) | > 100 µM (inactive) | > 62.8 µM (inactive) | 2.9 µM (inactive) | 21.3 µM (inactive) | 33.7 µM (inactive) | > 58.6 µM (inactive) | 8.22 µM (inactive) | 7.82 µM (inactive) | > 75.7 µM (inactive) | > 61.2 µM (inactive) | 19.1 µM (inactive) | > 100 µM (inactive) | 39.9 µM (inactive) | 88.3 µM (inactive) | > 100 | 49 µM (inactive) | > 95.3 µM (inactive)
Clc1ccc(Cc2nc3cc(Cl)c(Cl)cc3n2CC2CCCN3CCCCC23)cc1 (stereo not given) | 9.04 µM (inactive) | 10.3 µM (inactive) | 7.41 µM (inactive) | 3.35 µM (inactive) | 4.13 µM (inactive) | 12.2 µM (inactive) | 16 µM (inactive) | 16.9 µM (inactive) | 18.1 µM (inactive) | 2.65 µM (inactive) | 7.76 µM (inactive) | 12.8 µM (inactive) | 6.59 µM (inactive) | 8.11 µM (inactive) | 5.55 µM (inactive) | 14.7 µM (inactive) | 13 µM (inactive) | 10.7 | 5.6 µM (inactive) | 3.33 µM (inactive)
